Laboratory results published in US12286439B2, “Inhibitors of ERK nuclear translocation” (Yeda Research and Development Co. Ltd., priority 2018, dated 2025).

Key:
Format in all cases: cell-based
[1] = tested on: c-Myc phosphorylation (nuclear target of ERK1/2); assay: Western blot, phosphorylated c-Myc; details: 10 μM, 2 hours; TPA; both A2185 and HeLa cells
Protocol: CoIP assay was conducted using αERK1 (C-terminus) antibodies conjugated to protein A/G agarose beads. The precipitates were analyzed by Western blot using the indicated antibodies. Whole cell lysates (WCL) and αIgG-mouse (IgG) are shown as controls. […] Cell extracts were analyzed by Western blot with the indicated antibodies. […] The same extracts described in (B) were subjected to Western blot analysis using αpAkt Abs. The closest molecular weight marker (kDa) is shown on the right of all relevant panels.
Bars indicate average of 2 independent experiments done in triplicate ±SE. […] Empty squares represent individual data points of proliferation. Full squares indicate average proliferation of 2 independent experiments done in triplicate ±SE. […] Cell viability (as shown in FIGS. 8A and 8B) was measured by staining with methylene blue, and data presents proliferation normalized to DMSO control. […] Cell lysates were analyzed by Western blot with the corresponding antibodies. Closest molecular marker is indicated at the right of each panel.
Preparation of Cellular Extracts and Western Blotting:
Cells were grown to 70% confluence and serum starved (0.1% FCS, 16 hours). After treatments, cells were rinsed twice with ice-cold PBS−/− and scraped into RIPA buffer. […]

[2] = tested on: ERK1/2 nuclear translocation; assay: Determination of ERK1/2 localization by fluorescence microscopy after TPA stimulation; details: 10 μM, 2 hours, TPA 100 nM, 15 minutes
Protocol: Determination of Protein Localization by Fluorescence Microscopy:
Indicated cells were seeded on coverslips (coated with 0.001% w/v poly-L-lysine or not, depending on the cell line) at 50% confluency. After the indicated treatment, cells were fixed in 4% paraformaldehyde/PBS for 20 minutes on an ice surface, permeabilized with 0.1% Triton X-100/PBS for 5 minutes at 23° C., then blocked in 2% BSA/PBS for 30 minutes at 23° C. The fixed cells were sequentially incubated with appropriate antibodies (in 2% BSA/PBS, 1.5 hour), washed 3 times with PBS^−/−, and followed by incubation with either Cy-2-conjugated or rhodamine-conjugated secondary antibodies (1:200) and with DAPI ([…]; 1:100) in 2% BSA/PBS for 45 minutes. Slides were analyzed and photographed by a fluorescence microscope (Olympus BX51, ×40). Background correction, and contrast adjustment of raw data images were performed using Photoshop (Adobe, CA, USA).
The effect of Z56 was compared with that of the inhibitory effect of EPE peptide on nuclear translocation of ERK1/2.
The effects of the compounds on ERK1/2 nuclear translocation were evaluated in three cell lines (HeLa cells and two melanoma cell lines, A2185 and A2352), by treating the cells with each compound for two hours, and determining nuclear translocation using fluorescent anti-ERK antibodies, according to procedures described hereinabove.

[3] = tested on: A2185, A2352, HeLa and MCF7 cells; assay: Viability assay (methylene blue), four cancer lines; details: 72 hours, 1% FCS, in 3 or 4 cell lines, read-out: reduction of cell viability
Protocol: Four cancer cells, A2185, A2352, HeLa and MCF7 were grown in 1% FCS containing 10 μM of either EPE peptide, or Compounds Z56, Z1, Z2 or Z3, for 72 hours. Bars indicate average of 2 independent experiments done in triplicate ±SE. FIG. 8B presents dose response curves for Compounds Z56, Z1 and Z2. A2185 cells were grown in 1% FCS containing DMSO (0.1%) EPE or Scramble (Scr) peptide (10 μM), Compounds Z56, Z1, Z2, Z3 ([…]) or no treatment (FCS 1%) for 72 hours. Empty squares represent individual data points of proliferation. Full squares indicate average proliferation of 2 independent experiments done in triplicate ±SE. Bold horizontal line indicates arbitrary threshold (40%) for what is considered an active compound. Cell viability (as shown in FIGS. 8A and 8B) was measured by staining with methylene blue, and data presents proliferation normalized to DMSO control. […] Cell lysates were analyzed by Western blot with the corresponding antibodies. […]
Cells were seeded at low confluence into 24, 48 or 96-well plates in complete medium. […] Color was extracted by adding 0.1 M HCl (3 hours, 23° C.), and absorbance measured at 595 nm in an ELISA reader. For time course experiments, attached cells were fixed and measured at 0, 24, 48, 72 and 96 hours. […]

For `O=C(OC1C=CS(=O)(=O)C1)c1ccccc1` (stereo not shown) [Compound Z2], the “levels of phosphorylated c-Myc” value [1] was “decreased”, the “nuclear accumulation of ERK1/2 upon TPA stimulation” value ([2]; A2185 and A2352 cells) was “inhibited” and the “stimulated nuclear translocation of ERK1/2” value ([2]; A2352, A2185 and HeLa cells) was “significantly reduced”. The cytotoxicity at 10 µM [3] was ~60%.
